# Measured values reported in patent US20060128724A1, “Pyrazole-substituted aminoheteroaryl compounds as protein kinase inhibitors” (AGOURON PHARMACEUTICALS, INC., priority 2004, published 2006).
# Like-named read-outs stand apart in the source and are kept apart here.
# Target: T1, c-MET (HGFR) (Homo sapiens, UniProt P08581)
# T1 construct: purchased Upstate 14-526
# Assay: HGFR Continuous-Coupled Spectrophotometric Assay
# Assay type: biochemical
# Conditions: Met-2 substrate peptide, 50 nM HGFR, 37° C.
# Excerpt: The following in vitro assay may be used to determine the level of activity and effect of the different compounds of the present invention on one or more of the PKs. Similar assays can be designed along the same lines for any PK using techniques well known in the art.
# The general procedure is as follows: compounds and kinase assay reagents are introduced into test wells. The assay is initiated by addition of the kinase enzyme. Enzyme inhibitors reduce the measured activity of the enzyme.
# In the continuous-coupled spectrophotometric assay the time-dependent production of ADP by the kinase is determined by analysis of the rate of consumption of NADH by measurement of the decrease in absorbance at 340 nm. As the PK produces ADP it is re-converted to ATP by reaction with phosphoenol pyruvate and pyruvate kinase. Pyruvate is also produced in this reaction. Pyruvate is subsequently converted to lactate by reaction with lactate dehydrogenase, which simultaneously converts NADH to NAD.
# HGFR Continuous-Coupled Spectrophotometric Assay
# This assay analyzes the tyrosine kinase activity of HGFR on the Met-2 substrate peptide, a peptide derived from the activation loop of the HGFR.
# • 1. […] Dissolve up in 200 mM HEPES, pH 7.5 at 10 mM stock. • 3. 1 M PEP (phospho-enol-pyruvate) in 200 mM HEPES, pH 7.5 • 4. 100 mM NADH (B-Nicotinamide Adenine Dinucleotide, Reduced Form) in 200 mM HEPES, pH 7.5 • 5. 4 M MgCl2 (Magnesium Chloride) in ddH2O • 6. 1 M DTT (Dithiothreitol) in 200 mM HEPES, pH 7.5 • 7. 15 Units/mL LDH (Lactic Dehydrogenase) • 8. 15 Units/mL PK (Pyruvate Kinase) • 9. 5M NaCl dissolved in ddH2O • 10. Tween-20 (Protein Grade) 10% Solution • 11. 1 M HEPES buffer: (N-[2-Hydroxethyl]piperazine-N-[2-ethanesulfonic acid]) Sodium Salt. Dissolve in ddH2O, adjust pH to 7.5, bring volume to 1 L. Filter at 0.1 μm. • 12. […] 100% DMSO (SIGMA) • 14. […] Beckman DU-650 w/micro cell holders • 18. Beckman 4-position micro cell cuvette Procedure:
# Prep Dilution Buffer (DB) for Enzyme (For 30 mL prep) • 1. DB final concentration is 2 mM DTT, 25 mM NaCl2, 5 mM MgCl2, 0.01% Tween-20, and 50 mM HEPES buffer, pH 7.5. • 2. Make up 50 mM HEPES by adding 1.5 mL 1 M HEPES into 28.1 mL of ddH2O. Add rest of the reagents. Into 50 mL conical vial, add 60 μL of 1M DTT, 150 μL 5M NaCl2, 150 μL 1M MgCl2, and 30 μL of 10% Tween-20 to give total volume of 30 mL. • 3. […] Aliquot out DB at 1 mL/tube and label tubes as “DB HGFR” • 5. Note: This can be prepared and stored ahead of time. • 6. Freeze un-used aliquots in microcentrifuge tubes at −20° C. freezer. […] For compound dilution plate, add 4 μL of 10 mM stock into column 1 of plate, and bring volume to 100 μL with 100% DMSO. • 2. Set up the Precision 2000 dilution method. A final concentration of 200 μM compound in 50% DMSO, 100 mM HEPES (1:2 serial dilution). Prep Coupled Enzymatic Buffer:
# 1. Final concentration in assay:
# • 2. For a 10 mL reaction buffer add 10 μL of 1M PEP, 33 μL of 100 mM NADH, 50 μL of 4M MgCl2, 20 μL of 1M DTT, 6 μL of 500 mM ATP, and 500 μL of 10 mM Met-2 peptide into 100 mM HEPES buffer pH 7.5 and vortex/mix. • 3. Add coupling enzymes, LDH and PK, into reaction mix. Mix by gentle inversion. Running Samples
# 1. Spectrophotometer settings:
# • 2. Add 85 μL of CE reaction mix into each well of assay plate. • 3. Add 5 μL of diluted compound into a well of the assay plate. • 4. Add 5 μL of 50% DMSO for negative control into last column of assay plate. • 5. Mix with multi-channel pipettor or orbital shaker. • 6. Pre-incubate for 10 minutes at 37° C. • 7. Add 10 μL of 500 nM HGFR to each well of assay plate; the final HGFR concentration is 50 nM in a total final volume of 100 μL. • 8. Measure activity for 10 minutes at λ=340 nm and 37° C.
# T1 sequence (P08581 974-1390 limits assumed): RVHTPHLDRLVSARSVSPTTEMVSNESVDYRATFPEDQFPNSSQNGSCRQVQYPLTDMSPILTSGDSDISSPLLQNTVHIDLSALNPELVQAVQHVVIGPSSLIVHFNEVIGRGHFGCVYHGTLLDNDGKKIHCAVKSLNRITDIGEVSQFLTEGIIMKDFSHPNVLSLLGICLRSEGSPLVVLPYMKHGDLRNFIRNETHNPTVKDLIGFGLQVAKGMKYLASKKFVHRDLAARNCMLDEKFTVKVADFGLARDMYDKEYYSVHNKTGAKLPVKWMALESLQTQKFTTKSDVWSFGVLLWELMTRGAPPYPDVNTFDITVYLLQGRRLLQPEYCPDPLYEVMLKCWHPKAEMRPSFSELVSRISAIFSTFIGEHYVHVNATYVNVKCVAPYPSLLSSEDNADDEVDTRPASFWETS
Compound,Ki (read-out: Met Ki) [nM],Ki (read-out: c-Met Ki) [nM]
"4-(4-{6-Amino-5-[1- (2,6-dichloro-3-fluoro- phenyl)-ethoxy]-pyridin- 3-yl}-pyrazoI-1-yl)- piperidine-1- carboxylic acid dimethylamide [Example 120]",16,
"CCOC(=O)[C@H]1CC1Cn1cc(-c2cnc(N)c(OC(C)c3c(Cl)ccc(F)c3Cl)c2)cn1 (stereo in doubt) [Example 9, ethyl 2-[(4-{6-amino-5-[1-(2,6-dichloro-3-fluorophenyl)ethoxy]pyridin-3-yl}-1H-pyrazol-1-yl)methyl]cyclopropanecarboxylate]",,42
"CNC(=O)[C@H]1C[C@@H]1Cn1cc(-c2cnc(N)c(OC(C)c3c(Cl)ccc(F)c3Cl)c2)cn1 (stereo in doubt) [Example 10, 2-[(4-{6-amino-5-[1-(2,6-dichloro-3-fluorophenyl)ethoxy]pyridin-3-yl}-1H-pyrazol-1-yl)methyl]-N-methylcyclopropanecarboxamide]",,71
"CC(Oc1cc(-c2cnn(C[C@H]3C[C@@H]3C(=O)N(C)C)c2)cnc1N)c1c(Cl)ccc(F)c1Cl (stereo in doubt) [Example 11, 2-[(4-{6-amino-5-[1-(2,6-dichloro-3-fluorophenyl)ethoxy]pyridin-3-yl}-1H-pyrazol-1-yl)methyl]-N,N-dimethylcyclopropanecarboxamide]",,144
"CC(Oc1cc(-c2cnn([C@H](C)C(=O)NCCCN(C)C)c2)cnc1N)c1c(Cl)ccc(F)c1Cl (stereo in doubt) [Example 74, 2-(4-{6-Amino-5-[1-(2,6-dichloro-3-fluoro-phenyl)-ethoxy]-pyridin-3-yl}-pyrazol-1-yl)-N-(3-dimethylamino-propyl)-propionamide]",,40
"CC(Oc1cc(-c2cnn(C[C@H]3COC(C)(C)O3)c2)cnc1N)c1c(Cl)ccc(F)c1Cl (stereo in doubt) [Example 86, 3-[1-(2,6-Dichloro-3-fluoro-phenyl)-ethoxy]-5-[1-(2,2-dimethyl-[1,3]dioxolan-4-ylmethyl)-1H-pyrazol-4-yl]-pyridin-2-ylamine]",,62
"CC(Oc1cc(-c2cnn(C[C@H](O)CO)c2)cnc1N)c1c(Cl)ccc(F)c1Cl (stereo in doubt) [Example 87, 3-(4-{6-Amino-5-[1-(2,6-dichloro-3-fluoro-phenyl)-ethoxy]-pyridin-3-yl}-pyrazol-1-yl)-propane-1,2-diol]",,28
"C[C@@H](Oc1nc(Br)cnc1N)c1c(Cl)ccc(F)c1Cl [5-bromo-3-[(R)-1-(2,6-dichloro-3-fluoro-phenyl)-ethoxy]-pyrazin-2-ylamine]",,796
"CC(Oc1cc(-c2cnn(CC3CN(C(=O)OC(C)(C)C)C3)c2)cnc1N)c1c(Cl)ccc(F)c1Cl (stereo not shown) [Example 1, tert-butyl 3-[(4-{6-amino-5-[1-(2,6-dichloro-3-fluorophenyl)ethoxy]pyridin-3-yl}-1H-pyrazol-1-yl)methyl]azetidine-1-carboxylate]",,66
"CC(Oc1cc(-c2cnn(CC3(O)CCN(C(=O)OC(C)(C)C)CC3)c2)cnc1N)c1c(Cl)ccc(F)c1Cl (stereo not shown) [Example 3, tert-butyl 4-[(4-{6-amino-5-[1-(2,6-dichloro-3-fluorophenyl)ethoxy]pyridin-3-yl}1H-pyrazol-1-yl)methyl]-4-hydroxypiperidine-1-carboxylate]",,104
"CC(Oc1cc(-c2cnn(CC3(O)CCNCC3)c2)cnc1N)c1c(Cl)ccc(F)c1Cl (stereo not shown) [Example 4, 4-[(4-{6-amino-5-[1-(2,6-dichloro-3-fluorophenyl)ethoxy]pyridin-3-yl}1H-pyrazol-1-yl)methyl]piperidin-4-ol]",,62
"CC(Oc1cc(-c2cnn(C3CN(CC4CC4)C3)c2)cnc1N)c1c(Cl)ccc(F)c1Cl (stereo not shown) [Example 6, 5-{1-[1-(cyclopropylmethyl)azetidin-3-yl]-1H-pyrazol-4-yl}-3-[1-(2,6-dichloro-3-fluorophenyl)ethoxy]pyridin-2-amine]",,38
"CC(Oc1cc(-c2cnn(C3CN(C(=O)CN(C)C)C3)c2)cnc1N)c1c(Cl)ccc(F)c1Cl (stereo not shown) [Example 7, 3-[1-(2,6-dichloro-3-fluorophenyl)ethoxy]-5-(1-{1-[(dimethylamino)acetyl]azetidin-3-yl}-1H-pyrazol-4-yl)pyridin-2-amine]",,22
"CC(Oc1cc(-c2cnn(C3CN(CC#N)C3)c2)cnc1N)c1c(Cl)ccc(F)c1Cl (stereo not shown) [Example 8, [3-(4-{6-amino-5-[1-(2,6-dichloro-3-fluorophenyl)ethoxy]pyridin-3-yl}-1H-pyrazol-1-yl)azetidin-1-yl]acetonitrile]",,25
"CC(Oc1cc(-c2cnn(C(C)(C)C(=O)O)c2)cnc1N)c1c(Cl)ccc(F)c1Cl (stereo not shown) [Example 12, 2-(4-{6-Amino-5-[1-(2,6-dichloro-3-fluoro-phenyl)-ethoxy]-pyridin-3-yl}-pyrazol-1-yl)-2-methyl-propionic acid]",,180
"CC(Oc1cc(-c2cnn(C)c2N)cnc1N)c1c(Cl)ccc(F)c1Cl (stereo not shown) [Example 13, 5-(5-Amino-1-methyl-1H-pyrazol-4-yl)-3-[1-(2,6-dichloro-3-fluoro-phenyl)-ethoxy]-pyridin-2-ylamine]",,130
"Cc1[nH]ncc1-c1cnc(N)c(OC(C)c2c(Cl)ccc(F)c2Cl)c1 (stereo not shown) [Example 14, 3-[1-(2,6-Dichloro-3-fluoro-phenyl)-ethoxy]-5-(5-methyl-1H-pyrazol-4-yl)-pyridin-2-ylamine]",,700
"CC(Oc1cc(-c2cnn(C(C)(C)C(=O)NCCCN(C)C)c2)cnc1N)c1c(Cl)ccc(F)c1Cl (stereo not shown) [Example 16, 2-(4-{6-Amino-5-[1-(2,6-dichloro-3-fluoro-phenyl)-ethoxy]-pyridin-3-yl}-pyrazol-1-yl)-N-(3-dimethylamino-propyl)-isobutyramide]",,60
"CC(Oc1cc(-c2cnn(C(C)(C)C(=O)N3CCNCC3)c2)cnc1N)c1c(Cl)ccc(F)c1Cl (stereo not shown) [Example 17, 2-(4-{6-Amino-5-[1-(2,6-dichloro-3-fluoro-phenyl)-ethoxy]-pyridin-3-yl}-pyrazol-1-yl)-2-methyl-1-piperazin-1-yl-propan-1-one]",,440
"CC(Oc1cc(-c2cnn(C(C)(C)C(=O)N3CC[C@@H](O)C3)c2)cnc1N)c1c(Cl)ccc(F)c1Cl (stereo partly drawn) [Example 18, 2-(4-{6-Amino-5-[1-(2,6-dichloro-3-fluoro-phenyl)-ethoxy]-pyridin-3-yl}-pyrazol-1-yl)-1-((R)-3-hydroxy-pyrrolidin-1-yl)-2-methyl-propan-1-one]",,270
"CC(Oc1cc(-c2cnn(C(C)(C)C(=O)NCCN3CCOCC3)c2)cnc1N)c1c(Cl)ccc(F)c1Cl (stereo not shown) [Example 19, 2-(4-{6-Amino-5-[1-(2,6-dichloro-3-fluoro-phenyl)-ethoxy]-pyridin-3-yl}-pyrazol-1-yl)-N-(2-morpholin-4-yl-ethyl)-isobutyramide]",,140
"CC(Oc1cc(-c2cnn(C(C)(C)C(=O)NCCN3CCCC3)c2)cnc1N)c1c(Cl)ccc(F)c1Cl (stereo not shown) [Example 21, 2-(4-{6-Amino-5-[1-(2,6-dichloro-3-fluoro-phenyl)-ethoxy]-pyridin-3-yl}-pyrazol-1-yl)-N-(2-pyrrolidin-1-yl-ethyl)-isobutyramide]",,60
